For experiment [1], the target named is T1, ACL (Homo sapiens (Human), UniProt P53396). The experiment in a line: ADP-Glo Assay. (ADP-Glo first removes unused ATP, then detects ADP through luciferase.)
Target sequence in this assay (P53396 other isoform, or with tags, fused parts or gaps isoform P53396-2): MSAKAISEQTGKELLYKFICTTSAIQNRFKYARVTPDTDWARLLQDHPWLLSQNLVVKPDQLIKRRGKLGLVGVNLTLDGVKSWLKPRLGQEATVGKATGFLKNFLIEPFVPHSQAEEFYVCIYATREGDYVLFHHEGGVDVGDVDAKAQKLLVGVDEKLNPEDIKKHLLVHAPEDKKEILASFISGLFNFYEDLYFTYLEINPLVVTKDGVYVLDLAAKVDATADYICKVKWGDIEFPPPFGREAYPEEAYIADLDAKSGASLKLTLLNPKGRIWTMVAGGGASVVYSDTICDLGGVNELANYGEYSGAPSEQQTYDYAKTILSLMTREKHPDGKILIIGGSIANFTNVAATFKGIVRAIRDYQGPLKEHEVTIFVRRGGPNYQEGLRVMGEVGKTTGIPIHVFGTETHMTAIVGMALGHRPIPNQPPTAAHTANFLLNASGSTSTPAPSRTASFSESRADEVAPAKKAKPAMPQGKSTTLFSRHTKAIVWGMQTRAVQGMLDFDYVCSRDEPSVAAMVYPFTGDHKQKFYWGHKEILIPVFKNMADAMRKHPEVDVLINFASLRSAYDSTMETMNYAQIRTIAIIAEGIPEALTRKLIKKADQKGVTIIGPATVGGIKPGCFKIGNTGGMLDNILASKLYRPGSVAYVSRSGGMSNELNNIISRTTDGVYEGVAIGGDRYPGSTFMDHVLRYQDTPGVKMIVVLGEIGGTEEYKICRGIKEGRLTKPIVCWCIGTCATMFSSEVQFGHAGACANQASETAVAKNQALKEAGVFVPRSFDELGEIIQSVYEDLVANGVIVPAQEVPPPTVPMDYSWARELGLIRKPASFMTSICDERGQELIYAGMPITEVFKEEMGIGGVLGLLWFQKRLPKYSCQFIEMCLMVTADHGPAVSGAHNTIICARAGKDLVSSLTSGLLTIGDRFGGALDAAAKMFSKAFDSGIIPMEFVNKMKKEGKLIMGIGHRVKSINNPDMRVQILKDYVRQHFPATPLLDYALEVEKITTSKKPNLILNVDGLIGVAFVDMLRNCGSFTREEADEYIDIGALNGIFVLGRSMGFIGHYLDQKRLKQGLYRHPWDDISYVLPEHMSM
The target of experiment [2] is T1, ACL. The experiment in a line: ACLY-MDH Coupled Assay.
Target sequence in this assay (P53396 whole entry, species assumed): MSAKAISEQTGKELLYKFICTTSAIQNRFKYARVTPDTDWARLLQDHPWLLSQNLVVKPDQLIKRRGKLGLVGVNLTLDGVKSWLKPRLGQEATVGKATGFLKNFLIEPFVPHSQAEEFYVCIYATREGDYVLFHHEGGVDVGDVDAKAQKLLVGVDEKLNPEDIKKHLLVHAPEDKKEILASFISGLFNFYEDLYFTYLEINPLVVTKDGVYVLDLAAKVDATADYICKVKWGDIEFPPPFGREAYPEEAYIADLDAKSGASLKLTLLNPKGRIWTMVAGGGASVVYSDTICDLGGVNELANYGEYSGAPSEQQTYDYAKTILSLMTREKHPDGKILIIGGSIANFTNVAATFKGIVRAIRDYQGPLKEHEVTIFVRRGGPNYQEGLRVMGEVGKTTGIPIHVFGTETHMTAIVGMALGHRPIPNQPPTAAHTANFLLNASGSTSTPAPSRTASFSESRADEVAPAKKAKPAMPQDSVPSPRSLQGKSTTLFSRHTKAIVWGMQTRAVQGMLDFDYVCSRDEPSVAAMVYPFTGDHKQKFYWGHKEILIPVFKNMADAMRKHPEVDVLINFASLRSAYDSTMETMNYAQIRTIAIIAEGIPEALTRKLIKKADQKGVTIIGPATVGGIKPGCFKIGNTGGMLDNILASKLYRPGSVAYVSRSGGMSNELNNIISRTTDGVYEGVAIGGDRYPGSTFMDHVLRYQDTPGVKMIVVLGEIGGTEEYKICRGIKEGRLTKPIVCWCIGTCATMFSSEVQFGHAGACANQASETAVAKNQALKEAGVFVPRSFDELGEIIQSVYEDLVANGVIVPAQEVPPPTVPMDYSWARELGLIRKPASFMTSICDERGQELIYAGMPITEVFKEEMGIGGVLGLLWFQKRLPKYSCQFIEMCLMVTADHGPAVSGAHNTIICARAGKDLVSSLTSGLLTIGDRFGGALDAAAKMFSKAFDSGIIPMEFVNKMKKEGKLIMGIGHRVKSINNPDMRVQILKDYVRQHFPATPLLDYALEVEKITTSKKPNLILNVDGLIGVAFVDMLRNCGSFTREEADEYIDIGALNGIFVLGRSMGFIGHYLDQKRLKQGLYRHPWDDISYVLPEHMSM
Procedure: Compounds of the present invention were evaluated in an ACLY Coupled Assay.
The assay protocol for the Coupled Assay (below) was followed:
b) Add 1 μL cpds to 96 assay plate, Test cpd conc: 100/30/10 μM top dose, 3 folds dilution, 10+0+control (control: buffer without ACL+DMSO) points, 1000 rpm for 1 min, incubation at 25° C. for 60 min
The mark [3] stands for this setting: read-out: ACL-ADP-Glo (IC50), 3 nM ACL, 15 μM ATP, 3 μM CoA, 300 μM Citrate.
Where [4] appears, read: read-out: ACL-MDH Coupled Assay (IC50), 8 nM ACL, 60 μM CoA Na2, 85 μM Citrate, 250 μM ATP, 250 μM NADH.

Where only a bound is given, the exact number is not on record here.

Take `O=C(c1cc(Cl)c(O)c(S(=O)(=O)Nc2cc(-c3ccccc3)c(F)cc2F)c1)N1CC[C@@H](F)C1` [I-119, (R)-3-chloro-N-(4,6-difluoro-[1,1′-biphenyl]-3-yl)-5-(3-fluoropyrrolidine-1-carbonyl)-2-hydroxybenzenesulfonamide]: the IC50 (in general, the concentration that gives 50% inhibition) at ACL [1] (setting [3]) is less than 50 nM; against ACL [2], 50 to 500 nM.

In the case of `CS(=O)(=O)c1cc(Cl)c(O)c(S(=O)(=O)Nc2cc(-c3ccccc3)c(F)cc2F)c1` [I-124, 3-chloro-N-[4,6-difluoro-[1,1-biphenyl]-3-yl]-2-hydroxy-5-methanesulfonylbenzene-1-sulfonamide], the IC50 at ACL [1] and at ACL [2] was 50 to 500 nM throughout.

Regarding `O=C(c1cc(Cl)c(O)c(S(=O)(=O)Nc2cc(-c3ccccc3)c(F)cc2F)c1)N1CC(O)C1` [I-129, 3-chloro-N-(4,6-difluoro-[1,1′-biphenyl]-3-yl)-2-hydroxy-5-(3-hydroxyazetidine-1-carbonyl)benzenesulfonamide], the values for the IC50 at ACL [1] (setting [3]) and against ACL [2] were less than 50 nM and 50 to 500 nM, respectively.

In the case of `O=C(c1cc(Cl)c(O)c(S(=O)(=O)Nc2cc(-c3ccccc3)c(F)cc2F)c1)N1CC(F)C1` [I-130, 3-chloro-N-(4,6-difluoro-[1,1′-biphenyl]-3-yl)-5-(3-fluoroazetidine-1-carbonyl)-2-hydroxybenzenesulfonamide], the IC50 at ACL [1] (setting [3]) and at ACL [2] (setting [4]) was less than 50 nM throughout.

Take `COc1ccc(-c2ccccc2)cc1NS(=O)(=O)c1cc(-c2nccn2C)cc(Cl)c1O` [I-131, 3-chloro-2-hydroxy-N-[4-methoxy-[1,1-biphenyl]-3-yl]-5-(1-methyl-1H-imidazol-2-yl)benzene-1-sulfonamide]: the IC50 at ACL [1] and against ACL [2] was 50 to 500 nM throughout.

For `Cn1ccnc1-c1cc(Cl)c(O)c(S(=O)(=O)Nc2cc(-c3ccccc3)ccc2O)c1` [I-133, 3-chloro-2-hydroxy-N-(4-hydroxy-[1,1′-biphenyl]-3-yl)-5-(1-methyl-1H-imidazol-2-yl)benzenesulfonamide], the IC50 against ACL [1] lay within 50 to 500 nM; on ACL [2], 500 to 30000 nM.

Regarding `CC(C)n1c(NS(=O)(=O)c2cc(Cl)cc(Cl)c2O)c(-c2ccc(F)cc2)c2ccccc21` [I-134, 3,5-dichloro-N-(3-(4-fluorophenyl)-1-isopropyl-1H-indol-2-yl)-2-hydroxybenzenesulfonamide], the IC50 fell in the range of 500 to 20000 nM at ACL [1] and 500 to 30000 nM against ACL [2].

As to `O=C(c1cc(Cl)c(O)c(S(=O)(=O)Nc2cc(C3CC3)c(F)cc2F)c1)N1CCC1` [I-137, 5-(azetidine-1-carbonyl)-3-chloro-N-(5-cyclopropyl-2,4-difluorophenyl)-2-hydroxybenzene-1-sulfonamide], the IC50 at ACL [1] and against ACL [2] was 50 to 500 nM throughout.

With `O=C(Nc1cc(-c2ccccc2)c(F)cc1F)c1cc(Br)cc(Cl)c1O` [I-139, 5-bromo-3-chloro-N-(4,6-difluoro-[1,1′-biphenyl]-3-yl)-2-hydroxybenzamide], the IC50 at ACL [1] was in the range of 500 to 20000 nM; against ACL [2], 500 to 30000 nM.

Regarding `CO[C@@H]1CCN(C(=O)c2cc(Cl)c(O)c(S(=O)(=O)Nc3cc(-c4ccccc4)ccc3F)c2)C1` [I-141, 3-chloro-N-[4-fluoro-[1,1-biphenyl]-3-yl]-2-hydroxy-5-[(3R)-3-methoxypyrrolidine-1-carbonyl]benzene-1-sulfonamide], the IC50 lay in the range of 50 to 500 nM against ACL [1] and 500 to 30000 nM at ACL [2].

As for `CO[C@H]1CCN(C(=O)c2cc(Cl)c(O)c(S(=O)(=O)Nc3cc(-c4ccccc4)ccc3F)c2)C1` [I-142, 3-chloro-N-[4-fluoro-[1,1-biphenyl]-3-yl]-2-hydroxy-5-[(3S)-3-methoxypyrrolidine-1-carbonyl]benzene-1-sulfonamide], the 50% inhibitory concentration (IC50) at ACL [1] (setting [3]) and at ACL [2] (setting [4]) was less than 50 nM each time.

On to `O=C(O)COc1c(Cl)cc(Cl)cc1S(=O)(=O)Nc1cc(-c2ccccc2)ccc1F` [I-143], for which the IC50 against ACL [1] was in the range of 500 to 20000 nM; on ACL [2] it was 500 to 30000 nM.

On to `COc1ccc(-c2cccnc2)cc1NS(=O)(=O)c1cc(C(=O)N2CCC2)cc(Cl)c1O` [I-144, 5-(azetidine-1-carbonyl)-3-chloro-2-hydroxy-N-[2-methoxy-5-(pyridin-3-yl)phenyl]benzene-1-sulfonamide], for which the 50% inhibitory concentration (IC50) on ACL [1] was in the range of 50 to 500 nM; on ACL [2] it was 500 to 30000 nM.

`COC(=O)c1cc(Cl)c(O)c(C(=O)Nc2cc(-c3ccccc3)c(F)cc2F)c1` [I-146, methyl 3-chloro-5-((4,6-difluoro-[1,1′-biphenyl]-3-yl)carbamoyl)-4-hydroxybenzoate]: the IC50 was in the range of 500 to 20000 nM against ACL [1] and 500 to 30000 nM against ACL [2].

As to `C[C@@]1(O)CCN(C(=O)c2cc(Cl)c(O)c(S(=O)(=O)Nc3cc(-c4ccccc4)c(F)cc3F)c2)C1` [I-148, (R)-3-chloro-N-(4,6-difluoro-[1,1′-biphenyl]-3-yl)-2-hydroxy-5-(3-hydroxy-3-methylpyrrolidine-1-carbonyl)benzenesulfonamide], the IC50 on ACL [1] (setting [3]) and at ACL [2] (setting [4]) was less than 50 nM throughout.

As to `C[C@]1(O)CCN(C(=O)c2cc(Cl)c(O)c(S(=O)(=O)Nc3cc(-c4ccccc4)c(F)cc3F)c2)C1` [I-149, (S)-3-chloro-N-(4,6-difluoro-[1,1′-biphenyl]-3-yl)-2-hydroxy-5-(3-hydroxy-3-methylpyrrolidine-1-carbonyl)benzenesulfonamide], the figures for the IC50 at ACL [1] (setting [3]) and on ACL [2] were less than 50 nM and 50 to 500 nM, respectively.

Consider `CC(C)C(=O)Oc1c(Cl)cc(C(=O)N2CCC2)cc1S(=O)(=O)Nc1cc(-c2ccccc2)c(F)cc1F` [I-158, 4-(azetidine-1-carbonyl)-2-chloro-6-([4,6-difluoro-[1,1-biphenyl]-3-yl]sulfamoyl)phenyl 2-methylpropanoate], for which the 50% inhibitory concentration (IC50) at ACL [1] and on ACL [2] was 50 to 500 nM each time.

With `O=C(c1cc(Cl)c(O)c(S(=O)(=O)Nc2cc(-c3ccccc3)cc(F)c2F)c1)N1CCCC1` [I-159, 3-chloro-N-[4,5-difluoro-[1,1-biphenyl]-3-yl]-2-hydroxy-5-(pyrrolidine-1-carbonyl)benzene-1-sulfonamide], the IC50 on ACL [1] (setting [3]) and at ACL [2] (setting [4]) was less than 50 nM each time.

Regarding `O=C(c1cc(Cl)c(O)c(S(=O)(=O)Nc2cc(-c3ccccc3)cc(F)c2F)c1)N1CCC1` [I-160, 5-(azetidine-1-carbonyl)-3-chloro-N-[4,5-difluoro-[1,1-biphenyl]-3-yl]-2-hydroxybenzene-1-sulfonamide], the IC50 at ACL [1] (setting [3]) and on ACL [2] (setting [4]) was less than 50 nM throughout.

In the case of `CC(=O)NC1CN(C(=O)c2cc(Cl)c(O)c(S(=O)(=O)Nc3cc(-c4ccccc4)c(F)cc3F)c2)C1` [I-162, N-[1-[3-chloro-5-([4,6-difluoro-[1,1-biphenyl]-3-yl]sulfamoyl)-4-hydroxybenzoyl]azetidin-3-yl]acetamide], the IC50 against ACL [1] lay within 50 to 500 nM; against ACL [2], 500 to 30000 nM.

In the case of `O=C(O)COc1c(Br)cc(C(=O)N2CCC2)cc1S(=O)(=O)Nc1cc(-c2ccccc2)ccc1F` [I-192, 2-(4-(azetidine-1-carbonyl)-2-bromo-6-(N-(4-fluoro-[1,1′-biphenyl]-3-yl)sulfamoyl)phenoxy)acetic Acid], the results for the half-inhibitory concentration (IC50) on ACL [1] and against ACL [2] were 500 to 20000 nM and 500 to 30000 nM, respectively.

Take `O=C(c1cc(Cl)c(O)c(S(=O)(=O)Nc2cc(C3CC3)c(F)cc2F)c1)N1CCCC1` [I-193, 3-chloro-N-(5-cyclopropyl-2,4-difluorophenyl)-2-hydroxy-5-(pyrrolidine-1-carbonyl)benzene-1-sulfonamide]: the IC50 against ACL [1] lay within 500 to 20000 nM; at ACL [2], 500 to 30000 nM.

Turning to `O=C(c1cc(Cl)c(O)c(S(=O)(=O)Nc2cc(C3CC3)c(F)cc2F)c1)N1CC(F)C1` [I-194, 3-chloro-N-(5-cyclopropyl-2,4-difluorophenyl)-5-(3-fluoroazetidine-1-carbonyl)-2-hydroxybenzene-1-sulfonamide], the figures for the IC50 at ACL [1] and against ACL [2] were 50 to 500 nM and 500 to 30000 nM, respectively.

As to `O=C(c1cc(Cl)c(O)c(S(=O)(=O)Nc2cc(-c3cccnc3)c(F)cc2F)c1)N1CCC1` [I-197, 5-(azetidine-1-carbonyl)-3-chloro-N-[2,4-difluoro-5-(pyridin-3-yl)phenyl]-2-hydroxybenzene-1-sulfonamide], the IC50 against ACL [1] is 50 to 500 nM; on ACL [2], 500 to 30000 nM.

`NC1CN(C(=O)c2cc(Cl)c(O)c(S(=O)(=O)Nc3cc(-c4ccccc4)c(F)cc3F)c2)C1` [I-200, 5-(3-aminoazetidine-1-carbonyl)-3-chloro-N-[4,6-difluoro-[1,1-biphenyl]-3-yl]-2-hydroxybenzene-1-sulfonamide]: the IC50 was less than 50 nM on ACL [1] (setting [3]) and 50 to 500 nM on ACL [2].

Regarding `CC(C)(C)OC(=O)NC1CN(C(=O)c2cc(Cl)c(O)c(S(=O)(=O)Nc3cc(-c4ccccc4)c(F)cc3F)c2)C1` [I-201, tert-butyl N-[1-[3-chloro-5-([4,6-difluoro-[1,1-biphenyl]-3-yl]sulfamoyl)-4-hydroxybenzoyl]azetidin-3-yl]carbamate], the IC50 fell in the range of 500 to 20000 nM against ACL [1] and 500 to 30000 nM against ACL [2].

Regarding `O=C(c1cc(Cl)c(O)c(S(=O)(=O)Nc2cc(-c3ccncc3)ccc2F)c1)N1CCC1` [I-202, 5-(azetidine-1-carbonyl)-3-chloro-N-[2-fluoro-5-(pyridin-4-yl)phenyl]-2-hydroxybenzene-1-sulfonamide], the figures for the IC50 against ACL [1] and against ACL [2] were 50 to 500 nM and 500 to 30000 nM, respectively.

As to `N#Cc1cc(Cl)cc(S(=O)(=O)Nc2cc(-c3cc4ccccc4s3)c(F)cc2F)c1` [I-203, N-(5-(benzo[b]thiophen-2-yl)-2,4-difluorophenyl)-3-chloro-5-cyanobenzenesulfonamide], the IC50 against ACL [1] is 500 to 20000 nM; against ACL [2], greater than 30000 nM.

Consider `O=C(c1cc(Cl)c(O)c(S(=O)(=O)Nc2cc(-c3ccccn3)ccc2F)c1)N1CCC1` [I-206, 5-(azetidine-1-carbonyl)-3-chloro-N-[2-fluoro-5-(pyridin-2-yl)phenyl]-2-hydroxybenzene-1-sulfonamide], for which the IC50 at ACL [1] and on ACL [2] was 50 to 500 nM each time.

The values are drawn from patent US11555012B2 (Nimbus Artemis, Inc., priority 2018, dated 2023).
